Species on record: Rattus norvegicus
Experiment: DrugMatrix - Regimen: Daily Repeat
Type: toxicity, organism-based, Sprague-Dawley
Parameters: regimen Daily Repeat, gender Male, age 6-8 weeks
Conditions: in vivo, po, route oral GAVAGE, […]; for ABSOLUTE BASOPHIL / ABSOLUTE EOSINOPHIL / ABSOLUTE LYMPHOCYTE / ABSOLUTE MONOCYTE / ABSOLUTE SEGMENTED NEUTROPHIL / BASOPHIL / EOSINOPHIL / ERYTHROCYTE COUNT / HEMATOCRIT / HEMOGLOBIN / LEUKOCYTE COUNT / LYMPHOCYTE / MEAN CORPUSCULAR HEMOGLOBIN / MEAN CORPUSCULAR HEMOGLOBIN CONCENTRATION / MEAN CORPUSCULAR VOLUME / MONOCYTE / NEUTROPHIL / NUCLEATED RED BLOOD CELLS / PLATELET COUNT: tissue Blood; for ALANINE AMINOTRANSFERASE / ALBUMIN / ALKALINE PHOSPHATASE / ASPARTATE AMINOTRANSFERASE / BLOOD UREA NITROGEN / CARBON DIOXIDE / CHLORIDE / CHOLESTEROL / CREATINE PHOSPHOKINASE / CREATININE / GLUCOSE / LACTATE DEHYDROGENASE / LIPASE / PHOSPHORUS / POTASSIUM / SODIUM / TOTAL BILIRUBIN / TOTAL PROTEIN / URIC ACID: tissue Plasma
[1] = 48.8 mg/kg, 72 h, dose level Low, time 3 day
[2] = 48.8 mg/kg, 120 h, dose level Low, time 5 day
[3] = 488 mg/kg, 72 h, dose level High, time 3 day
[4] = 488 mg/kg, 120 h, dose level High, time 5 day

Which results are given for `C=CCc1ccc2c(c1)OCO2` [SAFROLE]?
ABSOLUTE BASOPHIL [1]: 0 CELLS/uL; ABSOLUTE EOSINOPHIL [1]: 0 CELLS/uL; ABSOLUTE LYMPHOCYTE [1]: 11419.67 CELLS/uL; ABSOLUTE MONOCYTE [1]: 222 CELLS/uL; ABSOLUTE SEGMENTED NEUTROPHIL [1]: 1191.67 CELLS/uL; BASOPHIL [1]: 0%; EOSINOPHIL [1]: 0%; ERYTHROCYTE COUNT [1]: 5.33 x10E6/uL; HEMATOCRIT [1]: 33.63%; HEMOGLOBIN [1]: 13.47 G/DL; LEUKOCYTE COUNT [1]: 12.83 x10E3/uL; LYMPHOCYTE [1]: 89%; MEAN CORPUSCULAR HEMOGLOBIN [1]: 25.3 pg; MEAN CORPUSCULAR HEMOGLOBIN CONCENTRATION [1]: 40.03 G/DL; MEAN CORPUSCULAR VOLUME [1]: 63.03 fL; MONOCYTE [1]: 1.67%; NEUTROPHIL [1]: 9.33%; NUCLEATED RED BLOOD CELLS [1]: 0 /100WBC; PLATELET COUNT [1]: 1123 x10E3/uL; ALANINE AMINOTRANSFERASE [1]: 71.67 u/L; ALBUMIN [1]: 4 G/DL; ALKALINE PHOSPHATASE [1]: 447.67 u/L; ASPARTATE AMINOTRANSFERASE [1]: 90.67 u/L; BLOOD UREA NITROGEN [1]: 13.33 mg/dL; CARBON DIOXIDE [1]: 26 mmol/L; CHLORIDE [1]: 101.67 MEQ/L; CHOLESTEROL [1]: 78.67 mg/dL; CREATINE PHOSPHOKINASE [1]: 266.33 u/L; CREATININE [1]: 0.21 mg/dL; GLUCOSE [1]: 149.33 mg/dL; LACTATE DEHYDROGENASE [1]: 158.33 u/L; LIPASE [1]: 11.67 u/L; PHOSPHORUS [1]: 11.73 mg/dL; POTASSIUM [1]: 6.6 MEQ/L; SODIUM [1]: 143.53 MEQ/L; TOTAL BILIRUBIN [1]: 0.23 mg/dL; TOTAL PROTEIN [1]: 5.57 G/DL; URIC ACID [1]: 1.4 mg/dL; ABSOLUTE BASOPHIL [2]: 0 CELLS/uL; ABSOLUTE EOSINOPHIL [2]: 30.67 CELLS/uL; ABSOLUTE LYMPHOCYTE [2]: 9371 CELLS/uL; ABSOLUTE MONOCYTE [2]: 61.33 CELLS/uL; ABSOLUTE SEGMENTED NEUTROPHIL [2]: 1037 CELLS/uL; BASOPHIL [2]: 0%; EOSINOPHIL [2]: 0.33%; ERYTHROCYTE COUNT [2]: 5.63 x10E6/uL; HEMATOCRIT [2]: 35.6%; HEMOGLOBIN [2]: 14.13 G/DL; LEUKOCYTE COUNT [2]: 10.5 x10E3/uL; LYMPHOCYTE [2]: 89%; MEAN CORPUSCULAR HEMOGLOBIN [2]: 25.07 pg; MEAN CORPUSCULAR HEMOGLOBIN CONCENTRATION [2]: 39.67 G/DL; MEAN CORPUSCULAR VOLUME [2]: 63.27 fL; MONOCYTE [2]: 0.67%; NEUTROPHIL [2]: 10%; NUCLEATED RED BLOOD CELLS [2]: 1 /100WBC; PLATELET COUNT [2]: 1163.33 x10E3/uL; ALANINE AMINOTRANSFERASE [2]: 65 u/L; ALBUMIN [2]: 4.07 G/DL; ALKALINE PHOSPHATASE [2]: 334.67 u/L; ASPARTATE AMINOTRANSFERASE [2]: 88.67 u/L; BLOOD UREA NITROGEN [2]: 12 mg/dL; CARBON DIOXIDE [2]: 31.33 mmol/L; CHLORIDE [2]: 102 MEQ/L; CHOLESTEROL [2]: 59.67 mg/dL; CREATINE PHOSPHOKINASE [2]: 260.67 u/L; CREATININE [2]: 0.22 mg/dL; GLUCOSE [2]: 164.33 mg/dL; LACTATE DEHYDROGENASE [2]: 263.33 u/L; LIPASE [2]: 11.67 u/L; PHOSPHORUS [2]: 10.97 mg/dL; POTASSIUM [2]: 6.08 MEQ/L; SODIUM [2]: 144.37 MEQ/L; TOTAL BILIRUBIN [2]: 0.17 mg/dL; TOTAL PROTEIN [2]: 5.7 G/DL; URIC ACID [2]: 1.8 mg/dL; ABSOLUTE BASOPHIL [3]: 0 CELLS/uL; ABSOLUTE EOSINOPHIL [3]: 78 CELLS/uL; ABSOLUTE LYMPHOCYTE [3]: 16011.33 CELLS/uL; ABSOLUTE MONOCYTE [3]: 75.33 CELLS/uL; ABSOLUTE SEGMENTED NEUTROPHIL [3]: 1335.33 CELLS/uL; BASOPHIL [3]: 0%; EOSINOPHIL [3]: 0.33%; ERYTHROCYTE COUNT [3]: 6.08 x10E6/uL; HEMATOCRIT [3]: 37.6%; HEMOGLOBIN [3]: 15.17 G/DL; LEUKOCYTE COUNT [3]: 17.5 x10E3/uL; LYMPHOCYTE [3]: 90.67%; MEAN CORPUSCULAR HEMOGLOBIN [3]: 24.93 pg; MEAN CORPUSCULAR HEMOGLOBIN CONCENTRATION [3]: 40.33 G/DL; MEAN CORPUSCULAR VOLUME [3]: 61.83 fL; MONOCYTE [3]: 0.67%; NEUTROPHIL [3]: 8.33%; NUCLEATED RED BLOOD CELLS [3]: 0 /100WBC; PLATELET COUNT [3]: 1291.67 x10E3/uL; ALANINE AMINOTRANSFERASE [3]: 88.33 u/L; ALBUMIN [3]: 3.93 G/DL; ALKALINE PHOSPHATASE [3]: 421 u/L; ASPARTATE AMINOTRANSFERASE [3]: 112.67 u/L; BLOOD UREA NITROGEN [3]: 8.33 mg/dL; CARBON DIOXIDE [3]: 23.33 mmol/L; CHLORIDE [3]: 105.67 MEQ/L; CHOLESTEROL [3]: 87.33 mg/dL; CREATINE PHOSPHOKINASE [3]: 340.33 u/L; CREATININE [3]: 0.13 mg/dL; GLUCOSE [3]: 142 mg/dL; LACTATE DEHYDROGENASE [3]: 539.33 u/L; LIPASE [3]: 12 u/L; PHOSPHORUS [3]: 13.57 mg/dL; POTASSIUM [3]: 6.52 MEQ/L; SODIUM [3]: 146.57 MEQ/L; TOTAL BILIRUBIN [3]: 0.2 mg/dL; TOTAL PROTEIN [3]: 5.33 G/DL; URIC ACID [3]: 2.37 mg/dL; ABSOLUTE BASOPHIL [4]: 0 CELLS/uL; ABSOLUTE EOSINOPHIL [4]: 0 CELLS/uL; ABSOLUTE LYMPHOCYTE [4]: 12133.67 CELLS/uL; ABSOLUTE MONOCYTE [4]: 150 CELLS/uL; ABSOLUTE SEGMENTED NEUTROPHIL [4]: 1216.33 CELLS/uL; BASOPHIL [4]: 0%; EOSINOPHIL [4]: 0%; ERYTHROCYTE COUNT [4]: 6.25 x10E6/uL; HEMATOCRIT [4]: 37.83%; HEMOGLOBIN [4]: 14.97 G/DL; LEUKOCYTE COUNT [4]: 13.5 x10E3/uL; LYMPHOCYTE [4]: 89.33%; MEAN CORPUSCULAR HEMOGLOBIN [4]: 23.97 pg; MEAN CORPUSCULAR HEMOGLOBIN CONCENTRATION [4]: 39.53 G/DL; MEAN CORPUSCULAR VOLUME [4]: 60.6 fL; MONOCYTE [4]: 1%; NEUTROPHIL [4]: 9.67%; NUCLEATED RED BLOOD CELLS [4]: 0 /100WBC; PLATELET COUNT [4]: 1251.67 x10E3/uL; ALANINE AMINOTRANSFERASE [4]: 106.33 u/L; ALBUMIN [4]: 3.87 G/DL; ALKALINE PHOSPHATASE [4]: 337.67 u/L; ASPARTATE AMINOTRANSFERASE [4]: 130.67 u/L; BLOOD UREA NITROGEN [4]: 10.33 mg/dL; CARBON DIOXIDE [4]: 24 mmol/L; CHLORIDE [4]: 102.33 MEQ/L; CHOLESTEROL [4]: 116.33 mg/dL; CREATINE PHOSPHOKINASE [4]: 612.33 u/L; CREATININE [4]: 0.19 mg/dL; GLUCOSE [4]: 123.33 mg/dL; LACTATE DEHYDROGENASE [4]: 662.67 u/L; LIPASE [4]: 12.67 u/L; PHOSPHORUS [4]: 11.8 mg/dL; POTASSIUM [4]: 5.41 MEQ/L; SODIUM [4]: 142.07 MEQ/L; TOTAL BILIRUBIN [4]: 0.17 mg/dL; TOTAL PROTEIN [4]: 5.6 G/DL; URIC ACID [4]: 1.37 mg/dL
